These results are taken from ChEMBL document CHEMBL4364295, “Discovery of a First-in-Class Receptor Interacting Protein 2 (RIP2) Kinase Specific Clinical Candidate, 2-((4-(Benzo[d]thiazol-5-ylamino)-6-(tert-butylsulfonyl)quinazolin-7-yl)oxy)ethyl Dihydrogen Phosphate, for the Treatment of Inflammatory Diseases” (J Med Chem, 2019).

SMILES strings stand for the structures. pIC50: −log10 of the molar value.

The nature of data set [1]: Oral bioavailability in Beagle dog at 2 mg/kg by LC/MS/MS analysis. It is filed as ADME, organism-based, Canis lupus familiaris. Conditions: in vivo; call rule not given here.
Data set [2] concerns Intestinal mucosa. The data set can be described thus: Antiinflammatory activity in ulcerative colitis patient derived inflamed intestinal mucosa assessed as reduction in IL1beta production measured after overnight incubation by immunoassay. It is filed as functional, tissue-based. The following applies: Homo sapiens.
Data set [3] is described as follows: Unbound fraction in human blood. The class given is ADME, tissue-based.
Data set [4] is described as follows: Cmax in Sprague-Dawley rat at 2 mg/kg, po by LC/MS/MS analysis. It is filed as ADME, organism-based. More on the design: dose 2 mg/kg, route oral. The following applies: in vivo.
Data set [5] can be described thus: Dose normalized AUC in Sprague-Dawley rat at 200 mg/kg, po using crystalline sample during 7 day dose ranging study by LC/MS/MS analysis. The class given is ADME, organism-based. The following applies: in vivo, 168 h.
A short description of data set [6]: Inhibition of TNFR in human monocytes assessed as reduction in TNFalpha-induced IL8 production. It is filed as cell-based.
The next data set deals with Toll-like receptor 2 (Homo sapiens, UniProt O60603). The data set can be described thus: Inhibition of TLR2 in HEK293 cells assessed as reduction in Pam2CSK4-induced IL8 production. It is filed as cell-based.
Chain of Toll-like receptor 2 (O60603 whole entry, the tested form may be a part): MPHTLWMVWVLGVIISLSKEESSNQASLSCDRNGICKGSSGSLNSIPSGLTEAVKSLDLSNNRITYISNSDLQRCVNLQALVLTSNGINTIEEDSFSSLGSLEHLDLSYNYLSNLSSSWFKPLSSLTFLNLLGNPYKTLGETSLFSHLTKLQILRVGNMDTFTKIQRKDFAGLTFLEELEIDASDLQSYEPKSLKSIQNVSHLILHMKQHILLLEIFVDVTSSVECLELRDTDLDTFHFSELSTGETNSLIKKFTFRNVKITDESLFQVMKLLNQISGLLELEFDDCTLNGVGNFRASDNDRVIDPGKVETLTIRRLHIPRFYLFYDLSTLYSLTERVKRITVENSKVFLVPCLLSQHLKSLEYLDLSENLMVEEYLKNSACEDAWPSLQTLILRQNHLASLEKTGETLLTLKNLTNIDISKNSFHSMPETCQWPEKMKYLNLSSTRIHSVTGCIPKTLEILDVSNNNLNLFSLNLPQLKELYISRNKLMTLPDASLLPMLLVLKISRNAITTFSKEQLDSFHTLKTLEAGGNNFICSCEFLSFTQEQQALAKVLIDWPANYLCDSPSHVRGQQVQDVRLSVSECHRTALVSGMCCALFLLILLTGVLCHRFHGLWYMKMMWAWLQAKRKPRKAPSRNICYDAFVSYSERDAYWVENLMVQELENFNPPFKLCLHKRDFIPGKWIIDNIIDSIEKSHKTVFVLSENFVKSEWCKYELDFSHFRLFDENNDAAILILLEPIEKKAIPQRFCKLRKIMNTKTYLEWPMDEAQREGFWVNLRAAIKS
Data set [7] concerns the target Nucleotide-binding oligomerization domain-containing protein 2 (Homo sapiens, UniProt Q9HC29). As to the kind of experiment: Inhibition of human NOD2 expressed in HEK293 cells assessed as reduction in MDP-induced IL8 production measured after 22 hrs by HTRF fluorescence assay. It is filed as cell-based.
Data set [8] is described as follows: Unbound fraction in rat blood. It is filed as ADME, tissue-based.
Data set [9] in a line: AUC in Sprague-Dawley rat at 200 mg/kg, po using crystalline sample during 7 day dose ranging study by LC/MS/MS analysis. It is filed as ADME, organism-based. The following applies: in vivo.
A short description of data set [10]: Oral bioavailability in Sprague-Dawley rat at 2 mg/kg by LC/MS/MS analysis. The class given is ADME, organism-based. The following applies: in vivo.
In data set [11] the test system is Intestinal mucosa. The data set can be described thus: Antiinflammatory activity in ulcerative colitis patient derived inflamed intestinal mucosa assessed as reduction in IL6 production measured after overnight incubation by immunoassay. It is filed as functional, tissue-based. The following applies: Homo sapiens.
A short description of data set [12]: Clearance in rat hepatocytes. It is filed as ADME, cell-based, Hepatocyte.
A short description of data set [13]: Volume of distribution at steady state in Sprague-Dawley rat at 2 mg/kg, po or 0.5 mg/kg, iv by LC/MS/MS analysis. Conditions: in vivo, read-out: Vdss. The class given is ADME, organism-based.
The nature of data set [14]: Clearance in dog hepatocytes. It is filed as ADME, cell-based, Canis lupus familiaris, Hepatocyte.
Data set [15] in a line: Dose normalized AUC in Sprague-Dawley rat at 60 mg/kg, po using crystalline sample during 7 day dose ranging study by LC/MS/MS analysis. The following applies: in vivo, 168 h. The class given is ADME, organism-based.
The nature of data set [16]: Solubility of the compound in FeSSIF. The class given is physicochemical. Conditions: simulated gi fluid.
Data set [17] can be described thus: Prodrug conversion in rat hepatocytes assessed as 2-((4-(Benzo[d]thiazol-5-ylamino)-6-(tert-butylsulfonyl)quinazolin-7-yl)oxy)ethanol formation at 20 uM measured after 4 hrs. It is filed as ADME, cell-based, Hepatocyte.
Data set [18] in a line: Drug uptake in Gottingen minipig systemic circulation at 2 mg/kg, po or 1 mg/kg, iv by LC/MS/MS analysis. It is filed as ADME, organism-based, Sus scrofa. The following applies: pig, in vivo.
The nature of data set [19]: Terminal half life in Beagle dog assessed as 2-((4-(Benzo[d]thiazol-5-ylamino)-6-(tert-butylsulfonyl)quinazolin-7-yl)oxy)ethanol level at 2 mg/kg, po or 0.9 mg/kg, iv by LC/MS/MS analysis. The class given is ADME, organism-based, Canis lupus familiaris. The following applies: in vivo.
The nature of data set [20]: Prodrug conversion in rat hepatocytes assessed as 2-(4-(benzo[d]thiazol-5-ylamino)-6-(tert-butylsulfonyl)-1,2,3,4-tetrahydroquinazolin-7-yloxy)ethanol formation at 20 uM measured after 4 hrs. It is filed as ADME, cell-based, Hepatocyte.
Data set [21] can be described thus: Prodrug conversion in rat hepatocytes assessed as 2-(4-(benzo[d]thiazol-5-ylamino)-6-(tert-butylsulfonyl)quinazolin-7-yloxy)acetic acid formation at 20 uM measured after 4 hrs. The class given is ADME, cell-based, Hepatocyte.
The nature of data set [22]: Prodrug conversion in Han Wistar rat skin assessed as 2-((4-(Benzo[d]thiazol-5-ylamino)-6-(tert-butylsulfonyl)quinazolin-7-yl)oxy)ethanol formation at 2 mg/kg, iv administered as infusion for 4 hrs. It is filed as ADME, organism-based, Zone of skin. Conditions: in vivo.
Data set [23] in a line: Half life in human intestinal S9 fraction. It is filed as ADME, subcellular, Intestine.
Data set [24] in a line: Prodrug conversion in minipig hepatocytes assessed as oxidation at 20 uM measured after 4 hrs. Conditions: pig. It is filed as ADME, cell-based, Sus scrofa, Hepatocyte.
Data set [25] can be described thus: Prodrug conversion in minipig hepatocytes assessed as hydrogenation at 20 uM measured after 4 hrs. It is filed as ADME, cell-based, Sus scrofa, Hepatocyte. Conditions: pig.
A further data set deals with Cytochrome P450 3A4 (Homo sapiens, UniProt P08684). The data set can be described thus: Inhibition of CYP3A4 (unknown origin). It is filed as ADME.
Chain of Cytochrome P450 3A4 (P08684 whole entry): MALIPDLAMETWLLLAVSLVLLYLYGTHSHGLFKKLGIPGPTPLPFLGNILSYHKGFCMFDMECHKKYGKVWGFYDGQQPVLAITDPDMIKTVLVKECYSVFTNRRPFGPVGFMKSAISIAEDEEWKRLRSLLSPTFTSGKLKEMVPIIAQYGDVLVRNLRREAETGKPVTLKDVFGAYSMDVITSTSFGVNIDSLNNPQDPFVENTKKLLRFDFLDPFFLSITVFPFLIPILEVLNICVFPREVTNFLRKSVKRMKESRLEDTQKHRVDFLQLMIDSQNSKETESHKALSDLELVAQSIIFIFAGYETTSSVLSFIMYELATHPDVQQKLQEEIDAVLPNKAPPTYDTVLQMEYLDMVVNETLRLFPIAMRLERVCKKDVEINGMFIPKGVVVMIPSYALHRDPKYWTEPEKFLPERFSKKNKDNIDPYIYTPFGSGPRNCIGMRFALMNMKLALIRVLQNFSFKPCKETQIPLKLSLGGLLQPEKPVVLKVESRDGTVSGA
Data set [26] in a line: Half life in rat intestinal S9 fraction. It is filed as ADME, subcellular, Intestine.
Data set [27] can be described thus: Oral bioavailability in Gottingen minipig assessed as 2-((4-(Benzo[d]thiazol-5-ylamino)-6-(tert-butylsulfonyl)quinazolin-7-yl)oxy)ethanol level at 1 mg/kg by LC/MS/MS analysis. The class given is ADME, organism-based, Sus scrofa. The following applies: pig, in vivo.
Data set [28] in a line: Prodrug conversion in rat hepatocytes assessed as hydrogenation at 20 uM measured after 4 hrs. The class given is ADME, cell-based, Hepatocyte.
Data set [29] can be described thus: Half life in dog intestinal S9 fraction. The class given is ADME, subcellular, Canis lupus familiaris, Intestine.
The nature of data set [30]: Drug uptake in Han Wistar rat skin at 2 mg/kg, iv administered as infusion for 4 hrs. It is filed as ADME, organism-based, Zone of skin. Conditions: in vivo.
Data set [31] can be described thus: Prodrug conversion in minipig hepatocytes assessed as 2-(4-(benzo[d]thiazol-5-ylamino)-6-(tert-butylsulfonyl)quinazolin-7-yloxy)acetic acid formation at 20 uM measured after 4 hrs. It is filed as ADME, cell-based, Sus scrofa, Hepatocyte. Conditions: pig.
Data set [32] is described as follows: Prodrug conversion in Sprague-Dawley rat stomach assessed as 2-((4-(Benzo[d]thiazol-5-ylamino)-6-(tert-butylsulfonyl)quinazolin-7-yl)oxy)ethanol formation at 2 mg/kg, po or 0.5 mg/kg, iv measured at 15 to 120 mins post dose. It is filed as ADME, organism-based. The following applies: in vivo.
Data set [33] can be described thus: Prodrug conversion in rat hepatocytes assessed as oxidation at 20 uM measured after 4 hrs. It is filed as ADME, cell-based, Hepatocyte.
The nature of data set [34]: Prodrug conversion in Sprague-Dawley rat hepatic portal vein assessed as 2-((4-(Benzo[d]thiazol-5-ylamino)-6-(tert-butylsulfonyl)quinazolin-7-yl)oxy)ethanol formation. It is filed as ADME. Conditions: in vivo.
The nature of data set [35]: Prodrug conversion in human hepatocytes assessed as 2-((4-(Benzo[d]thiazol-5-ylamino)-6-(tert-butylsulfonyl)quinazolin-7-yl)oxy)ethanol formation at 20 uM measured after 4 hrs. The class given is ADME, cell-based, Hepatocyte.
A short description of data set [36]: Prodrug conversion in human hepatocytes assessed as 2-(4-(benzo[d]thiazol-5-ylamino)-7-(2-hydroxyethoxy)quinazolin-6-ylsulfonyl)-2-methylpropan-1-ol formation at 20 uM measured after 4 hrs. The class given is ADME, cell-based, Hepatocyte.
Data set [37] in a line: Cmax in Beagle dog assessed as 2-((4-(Benzo[d]thiazol-5-ylamino)-6-(tert-butylsulfonyl)quinazolin-7-yl)oxy)ethanol level at 2 mg/kg, po by LC/MS/MS analysis. It is filed as ADME, organism-based, Canis lupus familiaris. Set-up: dose 2 mg/kg, route oral. The following applies: in vivo.
Data set [38] is described as follows: Prodrug conversion in human hepatocytes assessed as hydrogenation at 20 uM measured after 4 hrs. It is filed as ADME, cell-based, Hepatocyte.
Data set [39] in a line: Prodrug conversion in Sprague-Dawley rat intestine assessed as 2-((4-(Benzo[d]thiazol-5-ylamino)-6-(tert-butylsulfonyl)quinazolin-7-yl)oxy)ethanol formation at 2 mg/kg, po or 0.5 mg/kg, iv measured at 15 to 120 mins post dose. The class given is ADME, organism-based. The following applies: in vivo.
Data set [40] can be described thus: Drug uptake in Han Wistar rat colon at 2 mg/kg, iv administered as infusion for 4 hrs. It is filed as ADME, organism-based. The following applies: in vivo.
Data set [41] is described as follows: AUC in Beagle dog assessed as 2-((4-(Benzo[d]thiazol-5-ylamino)-6-(tert-butylsulfonyl)quinazolin-7-yl)oxy)ethanol level at 2 mg/kg, po by LC/MS/MS analysis. The class given is ADME, organism-based, Canis lupus familiaris. The following applies: in vivo.

Chain of Nucleotide-binding oligomerization domain-containing protein 2 (Q9HC29 whole entry, the tested form may be a part): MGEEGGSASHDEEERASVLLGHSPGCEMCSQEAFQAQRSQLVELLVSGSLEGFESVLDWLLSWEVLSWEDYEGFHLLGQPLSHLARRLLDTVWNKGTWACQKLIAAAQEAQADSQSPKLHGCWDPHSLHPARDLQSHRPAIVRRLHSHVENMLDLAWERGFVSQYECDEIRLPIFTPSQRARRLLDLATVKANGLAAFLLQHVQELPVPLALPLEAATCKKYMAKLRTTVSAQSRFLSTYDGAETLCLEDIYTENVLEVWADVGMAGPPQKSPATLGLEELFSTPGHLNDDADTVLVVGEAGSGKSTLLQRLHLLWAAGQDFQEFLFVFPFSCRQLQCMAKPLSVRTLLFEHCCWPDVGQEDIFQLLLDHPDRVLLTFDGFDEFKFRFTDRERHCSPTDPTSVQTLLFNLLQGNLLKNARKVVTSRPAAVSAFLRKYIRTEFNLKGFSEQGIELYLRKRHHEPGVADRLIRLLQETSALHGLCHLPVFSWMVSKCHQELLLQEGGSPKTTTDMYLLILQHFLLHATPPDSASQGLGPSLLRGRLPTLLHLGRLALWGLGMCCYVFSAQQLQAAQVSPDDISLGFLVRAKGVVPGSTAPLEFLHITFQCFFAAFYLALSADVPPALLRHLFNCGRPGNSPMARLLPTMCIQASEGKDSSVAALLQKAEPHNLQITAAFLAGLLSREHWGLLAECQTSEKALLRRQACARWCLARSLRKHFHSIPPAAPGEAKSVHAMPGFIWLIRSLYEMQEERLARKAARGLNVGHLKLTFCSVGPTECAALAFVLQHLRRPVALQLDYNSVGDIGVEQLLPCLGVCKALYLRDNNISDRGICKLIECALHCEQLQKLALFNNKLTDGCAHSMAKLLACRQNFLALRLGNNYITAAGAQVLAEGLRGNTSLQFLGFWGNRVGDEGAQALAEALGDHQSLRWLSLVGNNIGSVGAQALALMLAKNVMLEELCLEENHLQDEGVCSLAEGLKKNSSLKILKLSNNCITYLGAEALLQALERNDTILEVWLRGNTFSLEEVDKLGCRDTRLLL

As to `CC(C)(C)S(=O)(=O)c1cc2c(Nc3ccc4scnc4c3)ncnc2cc1OCCO`, the bioavailability was 57% in data set [1] and 39% in data set [10]. The Activity result in the data set on Intestinal mucosa [2] and in the data set with Intestinal mucosa [11] was “Dose-dependent effect” throughout. Besides, the pIC50 is 8.00 in the data set on Intestinal mucosa [2]; under 5.00 in data set [6]; under 5.00 at Toll-like receptor 2; 8.40 in data set [7]; 8.00 in the data set with Intestinal mucosa [11]. The unbound share (fraction unbound) in [3] worked out at 0.069; in [8], 0.11. The compound further showed a Cmax in data set [4] of 120 ng/mL. Besides, the AUC/dose came to 0.21 kg·h/L in data set [5] and 0.39 kg·h/L in data set [15]. For the same compound, the inhibition result in data set [7] was “Dose-dependent effect”. Besides, in data set [9], the AUC at 168 h amounted to 41400 ng·h/mL. The CLH in [12] was under 0.48 mL/min/g; in [14] it was 0.65 mL/min/g. The Vd in data set [13] was found to be 4.1 L/kg.

In the case of `CC(C)(C)S(=O)(=O)c1cc2c(Nc3ccc4scnc4c3)ncnc2cc1OCCOP(=O)(O)O.[CaH2]`, in data set [16], the solubility entry is recorded as “Soluble”. The Drug metabolism entry in [17], in data set [20], in data set [21], in data set [22], in data set [24] and in data set [25] was “Metabolite_Detected” in each case. The Drug metabolism result in data set [28], in data set [31], in [32], in data set [33], in data set [34] and in [35] was “Metabolite_Detected” each time. Moreover, the Drug metabolism entry in data set [36], in [38] and in [39] was “Metabolite_Detected” in each case. The Drug uptake entry in data set [18], in [30] and in [40] was “Not Active” in each case. Further, the “beta t1/2” value in data set [19] is 174 min. Moreover, the half-life came out at 18.3 min in [23], 3.3 min in data set [26] and 8 min in data set [29]. Further, the negative-log IC50 (pIC50) against Cytochrome P450 3A4 was under 4.52. In data set [27], the F is 58%. Further, in data set [37], the Cmax was found to be 840 ng/mL. In data set [41], the AUC was 4400 ng·h/mL.

The bioavailability is the share of a dose that reaches the circulation, judged against a reference dose that is usually intravenous. Read a low bioavailability as poor availability. By pIC50 is commonly meant −log10 of the IC50, conventionally taken in molar units. What is called fraction unbound is free concentration divided by total concentration. Read a high fraction unbound as weak binding. One may read the Cmax as the maximum level reached in the sampled fluid or tissue. Usually AUC stands for concentration integrated over time. What is called half-life is how long it takes for the measured level to halve. Read a high half-life as slow decline.
